Laboratory results: publication PMC5357639 (Frontiers in Chemistry, 2017)
Where a SMILES comes first, the peptide text is derived from it. The star is where a group is joined. Orn(α-tetramethylguanidino) = CN(C)C(=N[C@@H](CCCN)C(=O)*)N(C)C

How the values were obtained:
[1] = Organ distribution (blood, kidney, liver and brain homogenates, urine) after intraperitoneal administration; format: in vivo, NMRI mice; details: for Peptide level in brain homogenates (not detected, less than LOD) / Concentration in urine / Peptide level in brain (not detected, LOD converted to brain weight) / Recovered peptide amount in kidneys of treated animals / Recovery rate in blood relative to the injected peptide amount: mouse, in vivo, ip
Text: (§1) A protocol to quantify Api88, Api137, and their major metabolites was established analog to that of oncocin derivatives, reported recently (Schmidt et al., [2016]). Briefly, an Alliance® 2695 HPLC system was coupled online to an ESI-QqLIT-MS (4,000 QTRAP®) equipped with a TurboV™ ion-spray source and operated in positive ion MRM mode using the Analyst® 1.6 software. Separation was achieved on a Jupiter C18-column (internal diameter 1 mm, length 150 mm, particle size 5 μm, pore size 300 Å) at 55 °C using a linear 5-min gradient from 2.7 to 20.7% aqueous acetonitrile containing ammonium formate (26 mmol/L, pH 3.0). Further details about instrumentation, MRM optimization, and MS settings are provided as Supplementary Material (Tables S1–S4, Method M1).
(§2) Female NMRI mice (8–9 weeks, 25–35 g) were injected intraperitoneally (10 mL/kg) with peptides dissolved in sterile PBS (Gibco® Life Technologies™, Darmstadt, Germany) at concentrations of 0.5 or 2 g/L corresponding to doses of 5 or 20 mg/kg body weight, respectively. After 10, 20, 30, 60, or 90 min animals (n = 7) were euthanized by carbon dioxide inhalation and terminal bleeding via cardiac puncture. Lithium-heparin plasma (n = 7) was prepared and stored at −80°C. Immediately after the final bleed, mice were perfused through the left ventricle with saline (0.9%, 50 mL, ~3 min) to remove blood from all organs controlled by discoloration of the liver. Organs were removed aseptically and directly frozen in liquid nitrogen. Spontaneously released urine was collected and frozen immediately at −80°C.
(§3) Method M1: M ultiple reaction monitoring (MRM) transitions for apidaecin peptides Peptides (1 µ g/ m L ) were dissolved inaqueous acetonitrile (25% or 60% v/ v) containing either formate buffer (26 mmol/ L, pH 2.6, 3.0, 3.3 or 3.9 ) or formic acid (0.1% v/v ) and infused (flow rate 5 µ L/min, PHD 2600 s yringe pump) into the ES I-Q q L IT -MS (4000 QTRAP®) to optimize buffer composition and MRM. Transitions were selected from the tandem mass spectra (MS/MS) and confirmed on an ESI-QqTOF-MS (QSTAR® pulsar I) providing higher mass resolutions and mass accuracies than the QTRAP ®. The settings for declustering potential (DP), collision potential (CE), and collision cell exit potential (CXP) were optimized by ramping the respective pot entials using the compound optimization tool of the Anal yst® software.
(§4) Method M2: Sample preparation
(§5) Frozen organs (5 per group) wer e homogenized in sterile PBS (500 µ L) containing Protease Inhibitor Mix M (1% v/v; SERVA Electrophoresis GmbH, Heidelberg, German y) using an Ultra-Turr ax ® T25 basic (IKA-Werke, Staufen, German y, rotational speed 21,500 min-1) for 1 min. Homogenates were sonicated on ice (35% amplitude, mode: 5 s on; 5 s off for 1 min; Vibra-cell™ 75041, Thermo Fisher Scientific) to disrupt cells. After centrifugation (15 min, 21,460 x g, 4°C) the supernatants were stored at - 80°C.
(§6) Aliquots of plasma (10 µL) or liver (10 µ L), kidney (50 µ L), and brain hom ogenates (100 µ L) were spiked with isotope -labeled Api88, Api137, Api1- 16, and Api1- 17 (2.5 µ g/ m L). The samples were diluted fourfold with aqueous phosphoric acid (3.4% v/v), loaded on an Oasis H LB 9 6 -well solid phase extraction (SPE) plate (5 mg sorbent, Waters ), washed with aqueous methanol (0.3 m L, 5% v/ v), eluted with methanol (0.3 m L), and dried in a vacuum centrifuge (30 °C; SpeedVac, Eppendorf ). The samples were dissolved prior analysis in aqueous acetonitrile (3% v/v) containing formic acid (0.1 % v/v).
(§7) Stock solutions (1 g/L) of the peptides and their corresponding isotope-labelled internal standards were prepared and diluted in water. Calibration and validation mixtures (10 µL) of unlabeled (0.025, 0.1, 0.5 or 2.5 µg/m L) and isotope-labeled peptides ( 2.5 µ g/ m L ) w ere mix ed with plasma or organ homogenates (10 to 100 µL) obtained from untreated animals fo r […]
(§8) Limits of detection (LOD) and quantification (LOQ) corresponded to the lowest peptide […]

70S ribosomes = details: binding to 70S ribosomes; ref Krizsan et al., 2014; cited from earlier work
Text: Antimicrobial peptides (AMPs) are considered as promising alternatives to common antibiotics that threateningly lose their therapeutic potentials against multidrug-resistant pathogens (Fox, [2013]; Wang et al., [2015]). In contrast to approved therapeutic peptide hormones, antimicrobial peptides have to be administered at much higher doses, which may amplify general drawbacks of peptide therapeutics. For example, the diabetes peptide drugs exenatide and pramlintide are given at daily doses of 20 μg (Byetta®; ~0.5 μg/kg) and 120 μg (Symlin®; ~1.5 μg/kg; Heine et al., [2005]; Hay et al., [2015]) ...

in vivo [2] = assay: in vivo; design: species or system CD-1 mice; details: iv; for level at 5 min: female, CD-1, mouse, 5 mg/kg; for Time within which peptide is cleared: mouse
Text: as §1
Female CD-1 mice (20–23 g weight, 7 weeks) were injected intravenously (10 mL/kg) in the tail vein with peptides (0.5 g/L) dissolved in sterile saline (0.9%, w/v) corresponding to doses of 5 mg/kg body weight. Animals (n = 4 per time point and peptide) were euthanized 5, 10, 20, 40, and 60 min post-injection by carbon dioxide inhalation and exsanguination. For further details of sample preparation and recovery experiments see Supplementary Material (Methods M2, M3).
as §3, §4
Frozen organs (5 per group) wer e homogenized in sterile PBS (500 µ L) containing Protease Inhibitor Mix M (1% v/v; SERVA Electrophoresis GmbH, Heidelberg, German y) using an Ultra-Turr ax ® T25 basic (IKA-Werke, Staufen, German y, rotational speed 21,500 min-1) for 1 min. […]
Limits of detection (LOD) and quantification (LOQ) corresponded to the lowest peptide concentrations in water, plasma, or homogenates of brain, liver , and kidney providing a peak height exceeding the noise in the retention time window at least threefol d (LOD) or ten times (LOQ). Recover y r ates o f SPE and matrix effects were determined b y the p eak areas of spiked

in vivo [3] = assay: in vivo; design: species or system NMRI mice; details: mouse, ip; for C0: c0 (initial concentration at time point 0 min)
Text: as §1, §2, §3, §4, §5, §6, §7, §8

Compound | Peptide level in brain homogenates (not detected, less than LOD) ([1]; female, NMRI) | Peptide level in brain (not detected, LOD converted to brain weight) [1] | Recovered peptide amount in kidneys of treated animals [1] | Recovery rate in blood relative to the injected peptide amount [1] | Kd (70S ribosomes) | level at 5 min (in vivo [2]) | Time within which peptide is cleared (in vivo [2]) | AUC(0-inf) (in vivo [3]; female, NMRI, 5 mg/kg) | Cmax (in vivo [3]; female, NMRI, 5 mg/kg) | MRT (in vivo [3]; female, NMRI, 5 mg/kg) | clearance (in vivo [3]; female, NMRI, 5 mg/kg) | half-life (in vivo [3]; female, NMRI, 5 mg/kg) | C0 (in vivo [3]; female, NMRI, 5 mg/kg) | AUC(0-inf) (in vivo [3]; female, NMRI, 20 mg/kg) | Cmax (in vivo [3]; female, NMRI, 20 mg/kg) | MRT (in vivo [3]; female, NMRI, 20 mg/kg) | clearance (in vivo [3]; female, NMRI, 20 mg/kg) | half-life (in vivo [3]; female, NMRI, 20 mg/kg) | Time within which peptide is cleared (in vivo [3]) | AUMC0 → ∞ (in vivo [3]; 5 mg/kg) | other results
CC[C@H](C)[C@H](NC(=O)[C@H](Cc1ccc(O)cc1)NC(=O)[C@@H](NC(=O)[C@@H]1CCCN1C(=O)[C@H](CCCNC(=N)N)NC(=O)[C@H](CC(N)=O)NC(=O)[C@H](CC(N)=O)NC(=O)[C@H](CCCN)N=C(N(C)C)N(C)C)C(C)C)C(=O)N1CCC[C@H]1C(=O)N[C@@H](CCCNC(=N)N)C(=O)N1CCC[C@H]1C(=O)N[C@@H](CCCNC(=N)N)C(=O)N1CCC[C@H]1C(=O)N1CCC[C@H]1C(=O)N[C@@H](Cc1c[nH]cn1)C(=O)N1CCC[C@H]1C(=O)N[C@@H](CCCNC(=N)N)C(=O)N[C@@H](CC(C)C)C(N)=O [Api88] ({Orn(α-tetramethylguanidino)}-NNRPVYIPRPRPPHPRL-NH2) | < 43 ng/mL homogenate | < 89 μg/g brain | 1.8 µg/g | below 1% | 1200 nM | 1000 ng/mL | ~ 60 min | 355 ng·h/mL | 600 ng/mL | 30.5 min | 6.4 mL/min | 17.3 min | 1000 ng/mL | 1900 ng·h/mL | 4100 ng/mL | 23.9 min | 5.4 mL/min | 11.1 min | ~ 90 min | 650 μg^*min^2*mL^−^1 | Concentration in urine ([1]; female, NMRI, 20 mg/kg): ~ 0.2 μg/mL; Concentration in urine ([1]; 5 mg/kg): below LOD; Detection in plasma (in vivo [3]; 5 mg/kg): undetectable; Volume of distribution (in vivo [3]; 5 mg/kg): 137 mL; c0 (initial concentration at time point 0 min) (in vivo [3]; 5 mg/kg): 1 µg/mL; k (elimination constant) (in vivo [3]; 5 mg/kg): 0.040 min^−^1; AUMC0 → ∞ (in vivo [3]; 20 mg/kg): 2730 μg^*min^2*mL^−^1; Volume of distribution (in vivo [3]; 20 mg/kg): 100 mL; c0 (initial concentration at time point 0 min) (in vivo [3]; 20 mg/kg): 6.2 µg/mL; k (elimination constant) (in vivo [3]; 20 mg/kg): 0.062 min^−^1
CC[C@H](C)[C@H](NC(=O)[C@H](Cc1ccc(O)cc1)NC(=O)[C@@H](NC(=O)[C@@H]1CCCN1C(=O)[C@H](CCCNC(=N)N)NC(=O)[C@H](CC(N)=O)NC(=O)[C@H](CC(N)=O)NC(=O)[C@H](CCCN)N=C(N(C)C)N(C)C)C(C)C)C(=O)N1CCC[C@H]1C(=O)N[C@@H](CCCNC(=N)N)C(=O)N1CCC[C@H]1C(=O)N[C@@H](CCCNC(=N)N)C(=O)N1CCC[C@H]1C(=O)N1CCC[C@H]1C(=O)N[C@@H](Cc1c[nH]cn1)C(=O)N1CCC[C@H]1C(=O)N[C@@H](CCCNC(=N)N)C(=O)N[C@@H](CC(C)C)C(=O)O [Api137] ({Orn(α-tetramethylguanidino)}-NNRPVYIPRPRPPHPRL-OH) | < 18 ng/mL homogenate | < 37 μg/g brain | 2.4 µg/g | below 1% | 560 nM | 400 ng/mL | ~ 60 min | 160 ng·h/mL | 200 ng/mL | 54.9 min | 15.1 mL/min | 33.8 min | 200 ng/mL | 1200 ng·h/mL | 3600 ng/mL | 21 min | 8.4 mL/min | 16.9 min | ~ 90 min | 1512 μg^*min^2*mL^−^1 | Kidney concentration estimated from detected peptide amount ([1]; estimating the volume of both kidneys as 0.5 mL): 4.8 µg/mL; c0 (initial concentration at time point 0 min) (in vivo [3]; female, NMRI, 5 mg/kg): 0.22 µg/mL; Detection in plasma (in vivo [3]; 5 mg/kg): still detected; Volume of distribution (in vivo [3]; 5 mg/kg): 659 mL; k (elimination constant) (in vivo [3]; 5 mg/kg): 0.020 min^−^1; AUMC0 → ∞ (in vivo [3]; 20 mg/kg): 524 μg^*min^2*mL^−^1; Volume of distribution (in vivo [3]; 20 mg/kg): 77 mL; c0 (initial concentration at time point 0 min) (in vivo [3]; 20 mg/kg): 7.8 µg/mL; k (elimination constant) (in vivo [3]; 20 mg/kg): 0.041 min^−^1; t1/2 (elimination half life time) (in vivo [3]; 20 mg/kg): 17 min
